ChEMBL document CHEMBL3886918, “Pyrimidine compounds useful in the treatment of diseases mediated by IKKE and/or TBK1 mechanisms” (2016)

What follows are molecules tested against T1, Serine/threonine-protein kinase TBK1 (Homo sapiens, UniProt Q9UHD2) (assay: Time-Resolved Fluorescence-based Lanthascreen Assay: Kinase inhibition assays (10 μL) were performed at 20° C. in 384-well plate format. Compound IC50 values were determined at the apparent Km for ATP (20 μM) based on a radiometric assay (Invitrogen) using 8 or 10 point curves in duplicate. The final reaction conditions contained 400 nM fluorescein-IkBα substrate ([…]), 20 μM ATP, 2 nM or 8 nM IKKε or TBK1 kinase respectively, and 3% DMSO in kinase assay buffer consisting of 50 mM HEPES (pH 7.5), 10 mM MgCl, 1 mM EGTA, 0.01% Brij-35.Compound dilutions were prepared from 10 mM DMSO stocks by dilution into DMSO. Compound dilution series were further diluted in kinase assay buffer to give a 12% DMSO stock, the final concentration in the assay being 3% DMSO.The kinase phosphorylation assay was initiated by the addition of the kinase and the reaction was allowed to proceed for 1 h or 2.5 h for IKKε and TBK-1 kinase respectively.).
T1 sequence (Q9UHD2 whole entry): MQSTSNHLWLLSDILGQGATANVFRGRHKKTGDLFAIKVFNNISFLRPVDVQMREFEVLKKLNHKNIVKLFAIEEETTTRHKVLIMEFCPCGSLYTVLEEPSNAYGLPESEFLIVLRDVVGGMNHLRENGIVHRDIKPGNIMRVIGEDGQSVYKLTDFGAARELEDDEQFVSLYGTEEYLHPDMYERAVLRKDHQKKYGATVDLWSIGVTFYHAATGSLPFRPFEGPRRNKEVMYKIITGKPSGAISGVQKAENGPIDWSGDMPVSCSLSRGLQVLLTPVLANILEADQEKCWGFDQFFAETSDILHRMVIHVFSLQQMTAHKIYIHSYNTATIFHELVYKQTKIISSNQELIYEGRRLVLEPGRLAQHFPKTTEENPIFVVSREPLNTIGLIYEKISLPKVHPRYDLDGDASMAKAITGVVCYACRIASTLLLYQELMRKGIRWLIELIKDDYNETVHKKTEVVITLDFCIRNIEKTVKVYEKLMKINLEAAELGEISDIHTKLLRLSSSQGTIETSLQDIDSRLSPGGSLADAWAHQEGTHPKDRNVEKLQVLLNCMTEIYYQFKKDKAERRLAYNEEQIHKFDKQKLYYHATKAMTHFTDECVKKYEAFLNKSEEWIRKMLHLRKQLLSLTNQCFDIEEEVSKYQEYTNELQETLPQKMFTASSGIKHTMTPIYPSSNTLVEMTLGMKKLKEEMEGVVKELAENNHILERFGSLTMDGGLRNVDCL

SMILES	IC50 [nM]
N#Cc1cc(-c2ccnc(Nc3cccc(C(=O)N4CCNCC4)c3)n2)cnc1N1CC[C@H](F)C1	< 30
N#Cc1cc(-c2ccnc(Nc3ccc(N)nc3)n2)cnc1N1CC[C@H](F)C1	< 30
N#Cc1cc(-c2ccnc(Nc3ccc(CN4C(=O)OCC4CO)nc3)n2)cnc1N1CC[C@H](F)C1 (stereo not given in full)	< 30
CC(=O)NC1CCN(c2ncc(-c3ccnc(Nc4ccc(CN5CCOCC5)nc4)n3)cc2C#N)C1 (stereo not given)	< 1000
N#Cc1cc(-c2nc(Nc3ccnc(NC(=O)CN4CCOCC4)c3)ncc2F)cnc1N1CC[C@H](F)C1	< 30
